Experimental data from US4572908A, “Dihydropyridines” (Pfizer Inc., priority 1982, dated 1986).

System: rat aorta
Assay: inhibition of calcium-induced contraction (change in tension) of spirally cut strips of rat aorta in K+ 45 mM saline
Assay type: cell-based
Conditions: 0.75 h, 45 millimolar potassium, 2 millimolar calcium, 45 minutes, read-out: IC50 (molar concentration required to reduce the response by 50%)
Description: The ability of the compounds to inhibit the movement of calcium into the cell is shown by their effectiveness in reducing the response of isolated heart tissue to an increase in calcium ion concentration in vitro. The test is performed by mounting spirally cut strips of rat aorta with one end fixed and the other attached to a force transducer. The tissue is immersed in a bath of physiological saline solution containing potassium ions at a concentration of 45 millimolar and no calcium. Calcium chloride is added to the bath with a pipette to give a final calcium ion concentration of 2 millimolar. The change in tension caused by the resulting contraction of the tissue is noted. The bath is drained and replaced with fresh saline solution and, after 45 minutes, the test is repeated with the particular compound under test present in the saline solution. The concentration of compound required to reduce the response by 50% (IC50) is recorded.
The molar concentrations of the compounds required to reduce the response by 50% in the test specified on pages 16-17 are given below (1M=1 gm.Mole/liter).

| SMILES | IC50 |
| --- | --- |
| CCOC(=O)C1=C(COCCNc2nc(N)n(C)n2)NC(C)=C(C(=O)OC)C1c1ccccc1Cl (stereo not drawn) [Example 4] | 8.12 nM |
| CCOC(=O)C1=C(COCCNc2nc(C(=O)OCC)cs2)NC(C)=C(C(=O)OC)C1c1ccccc1Cl (stereo not drawn) [Example 73] | 4.4 nM |
| CCOC(=O)C1=C(COCCNc2nccc(=O)[nH]2)NC(C)=C(C(=O)OC)C1c1cccc(Cl)c1Cl (stereo not drawn) [Example 39] | 2.69 nM |
| CCOC(=O)C1=C(COCCNc2nnc(N)[nH]2)NC(C)=C(C(=O)OC)C1c1cccc(Cl)c1Cl (stereo not drawn) [Example 3B] | 6.02 nM |
| CCOC(=O)C1=C(COCCNc2nc(N)n[nH]2)NC(C)=C(C(=O)OC)C1c1ccccc1Cl (stereo not drawn) [Example 1B, 2-[2-(3-Amino-1H-1,2,4-triazol-5-ylamino)ethoxymethyl]-4-(2-chlorophenyl)-3-ethoxycarbonyl-5-methoxycarbonyl-6-methyl-1,4-dihydropyridine] | 20 nM |
| CCOC(=O)C1=C(COCCNc2nccnc2Cl)NC(C)=C(C(=O)OC)C1c1ccccc1Cl (stereo not drawn) [Example 32] | 15.8 nM |
| CCOC(=O)C1=C(COCCNc2cc(=O)[nH]cn2)NC(C)=C(C(=O)OC)C1c1cccc(C(F)(F)F)c1Cl (stereo not drawn) [Example 60] | 44.7 nM |
| CCOC(=O)C1=C(COCCNc2cc(N3CCOCC3)ncn2)NC(C)=C(C(=O)OC)C1c1ccccc1Cl (stereo not drawn) [Example 86] | 1.58 nM |
| CCOC(=O)C1=C(COCCNc2cc[nH]c(=O)n2)NC(C)=C(C(=O)OC)C1c1cccc(C(F)(F)F)c1Cl (stereo not drawn) [Example 62] | 1.35 nM |
| CCOC(=O)C1=C(COCCNc2ccc(C(N)=O)cn2)NC(C)=C(C(=O)OC)C1c1ccccc1Cl (stereo not drawn) [Example 22] | 18.2 nM |
| CCOC(=O)C1=C(COCCNc2cncc(Cl)n2)NC(C)=C(C(=O)OC)C1c1ccccc1Cl (stereo not drawn) [Example 33] | 6.3 nM |
| CCOC(=O)C1=C(COCCNc2cc(N3CCCCC3)ncn2)NC(C)=C(C(=O)OC)C1c1ccccc1Cl (stereo not drawn) [Example 85] | 5.01 nM |
| CCOC(=O)C1=C(COCCNc2nccs2)NC(C)=C(C(=O)OC)C1c1ccccc1Cl (stereo not drawn) [Example 71, 4-(2-Chlorophenyl)-3-ethoxycarbonyl-5-methoxycarbonyl-6-methyl-2-[2-(thiazol-2-ylamino)ethoxymethyl]-1,4-dihydropyridine] | 10 nM |
| CCOC(=O)C1=C(COCCNc2ccncn2)NC(C)=C(C(=O)OC)C1c1ccccc1Cl (stereo not drawn) [Example 10] | 1.9 nM |
| CCOC(=O)C1=C(COCCNc2nc(N)c3cc(OC)c(OC)cc3n2)NC(C)=C(C(=O)OC)C1c1ccccc1Cl (stereo not drawn) [Example 34] | 13.1 nM |
| CCOC(=O)C1=C(COCCNc2noc(=O)[nH]2)NC(C)=C(C(=O)OC)C1c1cccc(Cl)c1Cl (stereo not drawn) [Example 78, 2-[2-(4,5-Dihydro-5-oxo-1,2,4-oxadiazol-3-ylamino)ethoxymethyl]-4-(2,3-dichlorophenyl)-3-ethoxycarbonyl-5-methoxycarbonyl-6-methyl-1,4-dihydropyridinemonohydrate] | 2.29 nM |

More lines, in order of falling IC50, values ahead:

| IC50 | SMILES |
| --- | --- |
| 3160 nM | CCOC(=O)C1=C(COCCNc2cc(Cl)ncn2)NC(C)=C(C(=O)OC)C1c1cccc(Cl)c1Cl (stereo not drawn) [Example 53] |
| 100 nM | CCOC(=O)C1=C(COCCNC2=NCCN2)NC(C)=C(C(=O)OC)C1c1ccccc1Cl (stereo not drawn) [Example 21] |
| 13.1 nM | CCOC(=O)C1=C(COCCNc2nc3cc(OC)c(OC)cc3c(=O)[nH]2)NC(C)=C(C(=O)OC)C1c1ccccc1Cl (stereo not drawn) [Example 17] |
| 3.98 nM | CCOC(=O)C1=C(COCCNc2nccc(N)n2)NC(C)=C(C(=O)OC)C1c1ccccc1Cl (stereo not drawn) [Example 27] |
| 3.16 nM | CCOC(=O)C1=C(COCCNc2ccc(S(=O)(=O)N3CCN(C=O)CC3)cn2)NC(C)=C(C(=O)OC)C1c1ccccc1Cl (stereo not drawn) [Example 36] |
| 2.24 nM | CCOC(=O)C1=C(COCCNc2nc(C)cc(=O)[nH]2)NC(C)=C(C(=O)OC)C1c1cccc(C(F)(F)F)c1Cl (stereo not drawn) [Example 61] |
| 1.34 nM | CCOC(=O)C1=C(COCCNc2cc(N3CCOCC3)ncn2)NC(C)=C(C(=O)OC)C1c1cccc(Cl)c1Cl (stereo not drawn) [Example 80, 4-(2,3-Dichlorophenyl)-3-ethoxycarbonyl-5-methoxycarbonyl-6-methyl-[2-(6-morpholinopyrimidin-4-ylamino)ethoxymethyl]-1,4-dihydropyridine] |
| 0.126 nM | CCOC(=O)C1=C(COCCNc2cc(N3CCOCC3)ncn2)NC(C)=C(C(=O)OC)C1c1cccc(C(F)(F)F)c1Cl (stereo not drawn) [Example 88, 4-(2-Chloro-3-trifluoromethylphenyl)-3-ethoxycarbonyl-5-methoxycarbonyl-6-methyl-[2-(6-morpholino-pyrimidin-4-ylamino)ethoxymethyl]-1,4-dihydropyridin] |
